The supplement of paper PMC10307832

How the values were obtained:
Assay in all cases: relative viability (nuclei count vs DMSO), 5 days (fraction); higher = more cells survive
[1] = system: LXF-289
Method in brief: (§1)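 Five library-drug doses in √10 steps were combined with a fixed anchor-drug dose, or a single drug was given alone, by pin tool to lung cancer cell lines in 1536-well plates the day after seeding. Nuclei were stained and counted after 5 days. Relative viability is the nuclei count in treated wells over that in vehicle wells, taken as the median of duplicate plates.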

[2] = system: NCI-H647
Method in brief: as §1

[3] = system: NCI-H3122
Method in brief: as §1

[4] = system: NCI-H2228
Method in brief: as §1

[5] = system: NCI-H1395
Method in brief: as §1

[6] = system: NCI-H727
Method in brief: as §1

[7] = system: 201T
Method in brief: as §1

[8] = system: NCI-H1437
Method in brief: as §1

[9] = system: NCI-H1944
Method in brief: as §1

[10] = system: HCC-827
Method in brief: as §1

[11] = system: NCI-H1792
Method in brief: as §1

For `Nc1ccn([C@@H]2O[C@H](CO)[C@@H](O)[C@@H]2O)c(=O)n1` [Cytarabine] + C[C@]1(O)C[C@@H](c2nc(-c3ccc4ccc(-c5ccccc5)nc4c3)c3c(N)nccn32)C1 [Linsitinib] (partner 1 µM), the relative viability ([1]; first compound 0.005 µM) was 0.859, the relative viability ([1]; first compound 0.01581 µM) was 0.945 and the relative viability ([1]; first compound 0.05 µM) was 0.786. It also gave a relative viability ([1]; first compound 0.1581 µM) of 0.493, a relative viability ([1]; first compound 0.5 µM) of 0.279 and a relative viability ([2]; first compound 0.005 µM) of 0.729. The relative viability ([2]; first compound 0.01581 µM) was 0.55, the relative viability ([2]; first compound 0.05 µM) was 0.394 and the relative viability ([2]; first compound 0.1581 µM) was 0.148. It also gave a relative viability ([2]; first compound 0.5 µM) of 0.061, a relative viability ([3]; first compound 0.005 µM) of 0.995 and a relative viability ([3]; first compound 0.01581 µM) of 0.893. It also gave a relative viability ([3]; first compound 0.05 µM) of 0.948, a relative viability ([3]; first compound 0.1581 µM) of 0.72 and a relative viability ([3]; first compound 0.5 µM) of 0.476. It also gave a relative viability ([4]; first compound 0.005 µM) of 0.675, a relative viability ([4]; first compound 0.01581 µM) of 0.546 and a relative viability ([4]; first compound 0.05 µM) of 0.492. It also gave a relative viability ([4]; first compound 0.1581 µM) of 0.152, a relative viability ([4]; first compound 0.5 µM) of 0.0885 and a relative viability ([5]; first compound 0.005 µM) of 0.89. It also gave a relative viability ([5]; first compound 0.01581 µM) of 0.709, a relative viability ([5]; first compound 0.05 µM) of 0.784 and a relative viability ([5]; first compound 0.1581 µM) of 0.466. It also gave a relative viability ([5]; first compound 0.5 µM) of 0.38, a relative viability ([6]; first compound 0.005 µM) of 0.251 and a relative viability ([6]; first compound 0.01581 µM) of 0.254. For the same molecule, the relative viability ([6]; first compound 0.05 µM) was 0.318, the relative viability ([6]; first compound 0.1581 µM) was 0.19 and the relative viability ([6]; first compound 0.5 µM) was 0.215. For the same molecule, the relative viability ([7]; first compound 0.005 µM) was 1.1, the relative viability ([7]; first compound 0.01581 µM) was 1.02 and the relative viability ([7]; first compound 0.05 µM) was 1.03. For the same molecule, the relative viability ([7]; first compound 0.1581 µM) was 0.9, the relative viability ([7]; first compound 0.5 µM) was 0.886 and the relative viability ([8]; first compound 0.005 µM) was 0.746. The relative viability ([8]; first compound 0.01581 µM) was 0.678, the relative viability ([8]; first compound 0.05 µM) was 0.477 and the relative viability ([8]; first compound 0.1581 µM) was 0.19. It also gave a relative viability ([8]; first compound 0.5 µM) of 0.147, a relative viability ([9]; first compound 0.005 µM) of 1.1 and a relative viability ([9]; first compound 0.01581 µM) of 0.492. It also gave a relative viability ([9]; first compound 0.05 µM) of 0.424, a relative viability ([9]; first compound 0.1581 µM) of 0.216 and a relative viability ([9]; first compound 0.5 µM) of 0.195. It also gave a relative viability ([10]; first compound 0.005 µM) of 0.631, a relative viability ([10]; first compound 0.01581 µM) of 0.604 and a relative viability ([10]; first compound 0.05 µM) of 0.488. The relative viability ([10]; first compound 0.1581 µM) was 0.266, the relative viability ([10]; first compound 0.5 µM) was 0.262 and the relative viability ([11]; first compound 0.005 µM) was 0.46. For the same molecule, the relative viability ([11]; first compound 0.01581 µM) was 0.492.
